From US9682141B2, “Combination of kinase inhibitors and uses thereof” (INTELLIKINE LLC, priority 2011, dated 2017)
Read-outs that look alike come from different tables or passages of the source.

Key:
Format in all cases: biochemical
PI3K α = PI3K α (Homo sapiens (Human), UniProt P42336); test: PI 3-Kinase (human) HTRF assay, p110α/p85α
Experimental: An exemplary system is PI 3-Kinase (human) HTRF™ Assay from Upstate. […] Briefly, the assay is a time resolved FRET assay that indirectly measures PIP3 product formed by the activity of a PI3-K. The kinase reaction is performed in a microtitre plate (e.g., a 384 well microtitre plate). The total reaction volume is approximately 20 ul per well. In the first step, each well receives 2 ul of test compound in 20% dimethylsulphoxide resulting in a 2% DMSO final concentration. Next, approximately 14.5 ul of a kinase/PIP2 mixture (diluted in 1× reaction buffer) is added per well for a final concentration of 0.25-0.3 ug/ml kinase and 10 μM PIP2. The plate is sealed and incubated for 15 minutes at room temperature. To start the reaction, 3.5 ul of ATP (diluted in 1× reaction buffer) is added per well for a final concentration of 10 μM ATP. The plate is sealed and incubated for 1 hour at room temperature. The reaction is stopped by adding 5 ul of Stop Solution per well and then 5 ul of Detection Mix is added per well. The plate is sealed, incubated for 1 hour at room temperature, and then read on an appropriate plate reader. Data is analyzed and IC50s are generated using GraphPad Prism 5. For PI3K α, β, δ, and γ, the nM concentration of inhibitor to reach IC50 is provided.

PI3K β = PI3K β (Homo sapiens (Human), UniProt P42338); test: PI 3-Kinase (human) HTRF assay, p110β/p85α
mTORC = mTORC (Homo sapiens (Human), UniProt P42345); test: mTOR inhibition assay (radiometric or LanthaScreen TR-FRET)
Chain of mTORC (P42345 1360-2549): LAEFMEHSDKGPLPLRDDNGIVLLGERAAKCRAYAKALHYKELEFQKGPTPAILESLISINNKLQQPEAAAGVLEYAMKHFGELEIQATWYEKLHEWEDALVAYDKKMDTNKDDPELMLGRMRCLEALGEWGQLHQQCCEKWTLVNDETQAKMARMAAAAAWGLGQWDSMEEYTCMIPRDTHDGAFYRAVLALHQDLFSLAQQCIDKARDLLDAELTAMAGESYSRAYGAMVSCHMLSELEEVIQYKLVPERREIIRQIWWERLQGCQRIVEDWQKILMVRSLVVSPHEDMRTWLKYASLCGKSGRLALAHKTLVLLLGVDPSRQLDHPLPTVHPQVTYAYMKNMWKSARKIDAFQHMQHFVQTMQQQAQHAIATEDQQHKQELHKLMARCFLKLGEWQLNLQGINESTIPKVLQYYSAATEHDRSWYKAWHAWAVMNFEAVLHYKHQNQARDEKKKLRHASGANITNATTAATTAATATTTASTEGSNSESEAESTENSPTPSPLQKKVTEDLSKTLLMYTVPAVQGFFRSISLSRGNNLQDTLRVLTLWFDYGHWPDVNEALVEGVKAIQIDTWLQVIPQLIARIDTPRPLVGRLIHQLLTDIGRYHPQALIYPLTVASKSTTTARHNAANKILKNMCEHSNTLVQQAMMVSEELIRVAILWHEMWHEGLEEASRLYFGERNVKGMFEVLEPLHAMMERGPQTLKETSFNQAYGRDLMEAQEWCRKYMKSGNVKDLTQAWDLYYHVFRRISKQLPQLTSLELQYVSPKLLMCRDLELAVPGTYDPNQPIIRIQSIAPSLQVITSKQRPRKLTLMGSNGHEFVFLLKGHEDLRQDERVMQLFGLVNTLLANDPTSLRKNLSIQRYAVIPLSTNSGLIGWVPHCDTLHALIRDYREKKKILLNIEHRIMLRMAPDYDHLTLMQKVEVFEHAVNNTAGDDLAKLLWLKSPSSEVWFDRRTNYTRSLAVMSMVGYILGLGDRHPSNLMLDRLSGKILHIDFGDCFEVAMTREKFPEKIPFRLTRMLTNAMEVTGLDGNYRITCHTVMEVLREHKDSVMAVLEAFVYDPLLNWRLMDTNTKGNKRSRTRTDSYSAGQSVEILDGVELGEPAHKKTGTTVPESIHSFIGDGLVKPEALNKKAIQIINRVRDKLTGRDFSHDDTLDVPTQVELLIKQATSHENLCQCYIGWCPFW
Experimental: The compounds described herein can be tested against recombinant mTOR (Invitrogen) in an assay containing 50 mM HEPES, pH 7.5, 1 mM EGTA, 10 mM MgCl2, 2.5 mM, 0.01% Tween, 10 μM ATP (2.5 μCi of μ-32P-ATP), and 3 μg/mL BSA. Rat recombinant PHAS-1/4EBP1 (Calbiochem; 2 mg/mL) is used as a substrate. Reactions are terminated by spotting onto nitrocellulose, which is washed with 1M NaCl/1% phosphoric acid (approximately 6 times, 5-10 minutes each). Sheets are dried and the transferred radioactivity quantitated by phosphorimaging.
For instance, one can use Invitrogen's LanthaScreen™ Kinase assay to test the inhibitors of mTOR disclosed herein. This assay is a time resolved FRET platform that measures the phosphorylation of GFP labeled 4EBP1 by mTOR kinase. The kinase reaction is performed in a white 384 well microtitre plate. The total reaction volume is 20 ul per well and the reaction buffer composition is 50 mM HEPES pH7.5, 0.01% Polysorbate 20, 1 mM EGTA, 10 mM MnCl2, and 2 mM DTT. In the first step, each well receives 2 ul of test compound in 20% dimethylsulphoxide resulting in a 2% DMSO final concentration. Next, 8 ul of mTOR diluted in reaction buffer is added per well for a 60 ng/ml final concentration. To start the reaction, 10 ul of an ATP/GFP-4EBP1 mixture (diluted in reaction buffer) is added per well for a final concentration of 10 μM ATP and 0.5 μM GFP-4EBP1. The plate is sealed and incubated for 1 hour at room temperature. […] The plate is sealed, incubated for 1 hour at room temperature, and then read on a plate reader set up for LanthaScreen™ TR-FRET. Data is analyzed and IC50s are generated using GraphPad Prism 5.

PI3K γ = PI3K γ (Homo sapiens (Human), UniProt P48736); test: PI 3-Kinase (human) HTRF assay, p110γ
[1] = PI 3-Kinase (human) HTRF assay, p110δ/p85α; details: read-out: PI3K γ IC50
PI3K δ = PI3K δ (Homo sapiens (Human), UniProt O00329); test: PI 3-Kinase (human) HTRF assay, p110δ/p85α

Chain of PI3K α (P42336 whole entry): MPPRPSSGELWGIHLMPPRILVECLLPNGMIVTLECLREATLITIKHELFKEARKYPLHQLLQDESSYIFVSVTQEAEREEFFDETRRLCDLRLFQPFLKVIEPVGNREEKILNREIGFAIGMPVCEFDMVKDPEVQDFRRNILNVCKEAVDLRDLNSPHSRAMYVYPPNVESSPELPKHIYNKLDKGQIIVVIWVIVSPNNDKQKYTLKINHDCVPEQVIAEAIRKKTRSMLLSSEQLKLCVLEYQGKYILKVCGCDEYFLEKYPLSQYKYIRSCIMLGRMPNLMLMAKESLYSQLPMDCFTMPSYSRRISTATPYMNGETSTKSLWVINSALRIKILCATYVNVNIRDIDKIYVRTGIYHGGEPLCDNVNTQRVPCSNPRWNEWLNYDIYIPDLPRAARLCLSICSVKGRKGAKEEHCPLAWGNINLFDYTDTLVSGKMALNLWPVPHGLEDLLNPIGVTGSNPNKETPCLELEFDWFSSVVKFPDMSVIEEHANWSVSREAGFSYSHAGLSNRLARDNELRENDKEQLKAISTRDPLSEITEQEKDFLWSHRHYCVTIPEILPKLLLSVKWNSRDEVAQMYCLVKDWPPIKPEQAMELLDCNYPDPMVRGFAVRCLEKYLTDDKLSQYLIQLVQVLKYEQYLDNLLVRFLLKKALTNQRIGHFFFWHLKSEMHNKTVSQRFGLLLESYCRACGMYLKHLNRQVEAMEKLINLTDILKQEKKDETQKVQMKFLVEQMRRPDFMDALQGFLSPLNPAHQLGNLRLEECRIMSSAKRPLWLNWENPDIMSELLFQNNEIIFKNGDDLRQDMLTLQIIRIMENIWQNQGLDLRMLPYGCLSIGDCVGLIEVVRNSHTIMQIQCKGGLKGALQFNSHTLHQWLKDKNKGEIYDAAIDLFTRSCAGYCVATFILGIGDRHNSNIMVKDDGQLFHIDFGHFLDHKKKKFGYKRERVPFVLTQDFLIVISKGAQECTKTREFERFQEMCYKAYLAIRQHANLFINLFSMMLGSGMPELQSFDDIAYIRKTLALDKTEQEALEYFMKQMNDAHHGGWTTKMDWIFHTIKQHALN
Chain of PI3K α (P27986 whole entry partner): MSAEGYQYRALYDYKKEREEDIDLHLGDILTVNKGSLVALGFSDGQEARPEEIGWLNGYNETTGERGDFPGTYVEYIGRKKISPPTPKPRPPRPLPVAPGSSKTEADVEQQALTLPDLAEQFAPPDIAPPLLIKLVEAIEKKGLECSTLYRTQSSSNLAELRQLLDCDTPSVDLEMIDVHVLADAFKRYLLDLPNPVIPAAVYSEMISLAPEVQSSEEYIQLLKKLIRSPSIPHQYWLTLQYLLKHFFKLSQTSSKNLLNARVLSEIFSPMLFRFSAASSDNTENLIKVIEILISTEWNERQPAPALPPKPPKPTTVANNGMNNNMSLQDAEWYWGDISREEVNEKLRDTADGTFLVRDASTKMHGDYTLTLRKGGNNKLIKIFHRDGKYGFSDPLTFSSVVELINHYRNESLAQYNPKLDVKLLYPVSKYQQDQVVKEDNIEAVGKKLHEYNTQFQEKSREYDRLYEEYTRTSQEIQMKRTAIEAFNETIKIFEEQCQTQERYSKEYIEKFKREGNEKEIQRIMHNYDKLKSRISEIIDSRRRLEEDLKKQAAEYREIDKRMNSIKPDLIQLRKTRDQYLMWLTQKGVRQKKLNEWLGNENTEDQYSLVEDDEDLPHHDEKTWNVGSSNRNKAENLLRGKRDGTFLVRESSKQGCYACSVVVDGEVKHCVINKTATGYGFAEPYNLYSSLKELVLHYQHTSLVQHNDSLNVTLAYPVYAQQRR
Chain of PI3K β (P42338 whole entry): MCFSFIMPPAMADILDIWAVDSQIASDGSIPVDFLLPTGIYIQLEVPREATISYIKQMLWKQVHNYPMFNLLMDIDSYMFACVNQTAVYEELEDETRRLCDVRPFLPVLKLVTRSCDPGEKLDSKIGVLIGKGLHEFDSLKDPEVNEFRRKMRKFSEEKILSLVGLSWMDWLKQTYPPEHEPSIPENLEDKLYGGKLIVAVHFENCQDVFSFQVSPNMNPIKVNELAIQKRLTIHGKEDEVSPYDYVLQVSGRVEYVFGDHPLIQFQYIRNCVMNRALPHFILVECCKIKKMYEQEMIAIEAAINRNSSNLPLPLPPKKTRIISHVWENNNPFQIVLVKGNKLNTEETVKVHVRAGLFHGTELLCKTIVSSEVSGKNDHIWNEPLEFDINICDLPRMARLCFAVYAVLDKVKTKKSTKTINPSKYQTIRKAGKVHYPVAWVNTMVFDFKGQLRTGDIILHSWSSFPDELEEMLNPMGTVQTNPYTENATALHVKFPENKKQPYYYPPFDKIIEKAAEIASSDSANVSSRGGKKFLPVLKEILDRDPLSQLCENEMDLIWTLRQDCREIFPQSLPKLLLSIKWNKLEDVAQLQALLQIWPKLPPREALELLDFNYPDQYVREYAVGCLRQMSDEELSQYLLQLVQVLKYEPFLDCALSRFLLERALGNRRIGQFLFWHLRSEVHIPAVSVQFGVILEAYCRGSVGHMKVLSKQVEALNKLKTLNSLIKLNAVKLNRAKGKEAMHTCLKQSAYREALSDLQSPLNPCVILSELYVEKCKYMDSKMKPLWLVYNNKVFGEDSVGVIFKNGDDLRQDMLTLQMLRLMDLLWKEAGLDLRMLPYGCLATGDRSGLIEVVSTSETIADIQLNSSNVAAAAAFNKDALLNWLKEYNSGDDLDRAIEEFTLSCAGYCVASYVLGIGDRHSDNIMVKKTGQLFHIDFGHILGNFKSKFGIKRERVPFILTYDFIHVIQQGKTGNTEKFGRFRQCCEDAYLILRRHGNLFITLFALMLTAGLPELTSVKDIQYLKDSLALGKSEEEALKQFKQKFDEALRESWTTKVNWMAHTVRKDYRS
Chain of PI3K β (P27986 whole entry partner): as the sequence (P27986 whole entry partner) above

Compound | IC50 (PI3K α) | IC50 (PI3K β) | IC50 (mTORC) | IC50 (PI3K γ; read-out: PI3K γ IC50) | IC50 (PI3K γ; read-out: PI3K δ IC50) | IC50 [1] | IC50 (PI3K δ)
Nc1ncc2cc(-c3ccc4nccc(-c5ccncc5)c4c3)ccc2n1 [Compound 9] | < 1 µM | < 10 µM | > 10 µM | < 1 µM |  |  | 
CN(C)[C@@H]1CCN(c2cnc3ccc(-c4ccc5oc(N)nc5c4)cc3n2)C1 | < 0.1 µM | < 0.1 µM | < 1 µM |  | < 10 µM | < 10 µM | 
C[C@@H]1CN(C2CN(c3cnc4ccc(-c5ccc6oc(N)nc6c5)nc4n3)C2)CCN1 | < 0.1 µM | > 10 µM | > 10 µM | > 10 µM |  |  | 
Nc1nc2cc(-c3ccc4ncc(N5CC(C(=O)N6CCN(C7CC7)CC6)C5)nc4c3)ccc2o1 | < 0.1 µM | < 10 µM | < 10 µM |  | < 1 µM | < 1 µM | 
CC(=O)Nc1cn2cc(-c3ccc4oc(N)nc4c3)ccc2n1 | < 0.1 µM | < 1 µM | < 1 µM |  | < 0.1 µM | < 0.1 µM | 
Nc1nc2cc(-c3ccc4ncc(N5CC(N6CCNCC6)C5)nc4c3)ccc2o1 | < 0.1 µM | < 1 µM | > 10 µM |  | < 1 µM | < 1 µM | 
Nc1nc2cc(-c3ccc4ncc(C(=O)N[C@H]5CC[C@H](O)CC5)n4c3)ccc2o1 |  | < 10 µM | > 10 µM | < 0.1 µM |  |  | 
CC(C)Oc1nc(-c2ccc3oc(N)nc3c2)cnc1N | < 10 µM | < 10 µM | < 1 µM |  | < 10 µM |  | 
C[C@@H]1CN(c2cnc3ccc(-c4ccc5oc(N)nc5c4)nc3c2)CCN1 | < 0.1 µM | < 1 µM | > 10 µM | < 10 µM |  |  | 
CC(C)N1CCN(C2CN(c3cnc4ccc(-c5ccc6oc(N)nc6c5)cc4n3)C2)CC1 | < 0.1 µM | < 10 µM | > 10 µM |  | < 10 µM | < 10 µM | 
CN1CCN(c2cnc3ccc(-c4ccc5oc(N)nc5c4)cc3n2)CC1=O | < 0.1 µM | < 1 µM | < 10 µM |  | < 1 µM | < 10 µM | 
C[C@H]1CN(C2CN(c3cnc4ccc(-c5ccc6oc(N)nc6c5)cc4n3)C2)CCN1 | < 0.1 µM | < 10 µM | > 10 µM |  | > 10 µM | < 10 µM | 
CN1CCN(c2cnc3ccc(-c4ccc5oc(N)nc5c4)cc3n2)CC1 | < 0.1 µM | < 0.1 µM | > 10 µM | < 1 µM |  |  | 
Nc1nc2cc(-c3ccc4ncc(N5CC(N6CCN(CCO)CC6)C5)nc4c3)ccc2o1 | < 0.1 µM | < 10 µM | > 10 µM |  | < 10 µM | < 1 µM | 
CC(C)[C@@H](N)C(=O)N1CCN(c2cnc3ccc(-c4ccc5oc(N)nc5c4)cc3n2)CC1 | < 0.1 µM | < 1 µM | < 10 µM |  | < 1 µM | < 1 µM | 
Nc1nc2cc(-c3ccc4ncc(N5CC(N6CCN(CC7CC7)CC6)C5)nc4c3)ccc2o1 | < 0.1 µM | < 10 µM | > 10 µM |  | > 10 µM | < 10 µM | 
CC(=O)N1CCN(C2CN(c3cnc4ccc(-c5ccc6oc(N)nc6c5)cc4n3)C2)CC1 | < 0.1 µM | < 10 µM | > 10 µM |  | < 1 µM | < 1 µM | 
Cc1cc2oc(N)nc2cc1-c1ccc2ncc(N3CC(N4CCOCC4)C3)nc2c1 | < 10 µM | > 10 µM | > 10 µM |  | > 10 µM | > 10 µM | 
CS(=O)(=O)N1CCN(C2CN(c3cnc4ccc(-c5ccc6oc(N)nc6c5)cc4n3)C2)CC1 | < 0.1 µM | < 10 µM | > 10 µM |  | < 10 µM | < 10 µM | 
C[C@@H]1CN(C(=O)C2CN(c3cnc4ccc(-c5ccc6oc(N)nc6c5)cc4n3)C2)CCN1 | < 0.1 µM | < 10 µM | < 10 µM |  | < 1 µM | < 1 µM | 
Nc1nc2cc(-c3nc(N4CCOCC4)c4cnn(C5CCNCC5)c4n3)ccc2o1 | < 1 µM | < 0.1 µM | < 1 µM |  | < 1 µM | < 10 µM | 
CN1CCN(C2CN(C(=O)c3cnc4ccc(-c5ccc6oc(N)nc6c5)cn34)C2)CC1 | < 0.1 µM | > 10 µM | < 10 µM |  | > 10 µM | < 10 µM | 
Nc1nc2cc(-c3ccc4nc(N)sc4c3)ccc2o1 | < 1 µM | < 1 µM | < 10 µM |  | < 1 µM | < 10 µM | 
Nc1nc2cc(-c3ccc4ncc(N5CC(N6CCOCC6)C5)nc4c3)c(F)cc2o1 | < 0.1 µM | < 10 µM | > 10 µM |  | < 10 µM | < 10 µM | 
Nc1nc2cc(-c3ccc4ncc(N5CC(N6CCN(C7CC7)CC6)C5)nc4c3)ccc2o1 | < 0.1 µM | < 10 µM | < 10 µM |  | < 10 µM | < 10 µM | 
Cc1nccn1C1CN(c2cnc3ccc(-c4ccc5oc(N)nc5c4)cc3n2)C1 | < 0.1 µM | < 10 µM | < 10 µM |  | < 10 µM | < 10 µM | 
CCN(CC)C1CN(c2cnc3ccc(-c4ccc5oc(N)nc5c4)cc3n2)C1 | < 0.1 µM | < 10 µM | > 10 µM |  | < 1 µM | < 10 µM | 

Compound | IC50 (PI3K α) | IC50 (PI3K β) | IC50 (mTORC) | IC50 (PI3K γ; read-out: PI3K γ IC50) | IC50 (PI3K γ; read-out: PI3K δ IC50) | IC50 [1] | IC50 (PI3K δ)
N#Cc1cnc2ccc(-c3ccc4oc(N)nc4c3)cc2c1Cl |  |  | < 1 µM |  |  |  | 
COc1ncc(-c2ccc3ncc(C(=O)N4CCOCC4)n3c2)cc1NS(=O)(=O)c1ccc(F)cc1F | < 0.1 µM | < 0.1 µM | < 1 µM |  | < 0.1 µM | < 0.1 µM | 
CS(=O)(=O)N1CCN(C2CCN(c3cnc4ccc(-c5ccc6oc(N)nc6c5)cc4n3)CC2)CC1 | < 0.1 µM | < 10 µM | < 10 µM |  | < 1 µM | < 10 µM | 
Nc1nc2cc(-c3ccc4ncc(N5CC(n6cccn6)C5)nc4c3)ccc2o1 | < 0.1 µM | < 10 µM | < 1 µM |  | < 10 µM | > 10 µM | 
Nc1ncnc2ccc(-c3ccc4nccc(-c5ccncc5)c4c3)cc12 [Compound 8] | < 10 µM | > 10 µM | > 10 µM | < 1 µM |  |  | 
Nc1ncc(-c2ccc3oc(N)nc3c2)cn1 | > 10 µM | > 10 µM | > 10 µM |  | < 10 µM | > 10 µM | 
CCN1CCN(C2CN(c3cnc4ccc(-c5ccc6oc(N)nc6c5)cc4n3)C2)CC1 | < 0.1 µM | < 1 µM | > 10 µM |  | < 10 µM | < 1 µM | 
Nc1nc2cc(-c3cccc4[nH]nc(N)c34)ccc2o1 | > 10 µM | > 10 µM | > 10 µM |  | > 10 µM |  | 
Nc1nc2cc(-c3ccc4nc(N)oc4c3)ccc2o1 | < 1 µM |  | < 10 µM |  | < 0.1 µM | < 1 µM | 
Nc1nc2cc(-c3ccc4ncc(-c5ccc(N6CCOCC6)nc5)nc4c3)ccc2o1 | < 10 µM | > 10 µM |  | > 10 µM |  |  | > 10 µM
CN1CCN(c2cnc3ccc(-c4ccc5nc(N)oc5c4)cc3n2)CC1 | < 1 µM | < 0.1 µM |  | < 10 µM |  |  | > 10 µM
CC1CN(c2cnc3ccc(-c4ccc5oc(N)nc5c4)cc3n2)CCN1 (stereo not drawn) | < 0.1 µM | < 0.1 µM |  | < 1 µM |  |  | < 10 µM
Nc1nc2cc(-c3ccc4ncc(N5CCN(C(=O)[C@@H]6CCCN6)CC5)nc4c3)ccc2o1 | < 0.1 µM | < 0.1 µM |  | < 0.1 µM |  |  | < 0.1 µM
CCN1CCN(c2cnc3ccc(-c4ccc5oc(N)nc5c4)cc3n2)CC1 | < 0.1 µM | < 0.1 µM |  | < 1 µM |  |  | < 10 µM
Nc1noc2cc(-c3ccc4nccc(-c5ccncc5)c4c3)ccc12 [Compound 16] | < 0.1 µM | < 10 µM |  | < 1 µM |  |  | < 10 µM
Nc1nc2cc(-c3ccc4oc(N)nc4c3)ccc2o1 | < 1 µM |  | < 10 µM |  | < 0.1 µM | < 10 µM | 
Nc1nc2cc(-c3ccc4ncc(N5CCC(O)CC5)nc4c3)ccc2o1 | < 0.1 µM | < 10 µM |  | < 1 µM |  |  | < 1 µM
Nc1nc2cc(-c3ccc4ncn(CCO)c(=O)c4c3)ccc2o1 | < 0.1 µM | < 10 µM |  | < 1 µM |  |  | > 10 µM
Cc1nc2ccc(-c3ccc4oc(N)nc4c3)cn2c1C(=O)N1CCOCC1 | > 10 µM | > 10 µM |  | > 10 µM |  |  | > 10 µM
Nc1nc2cc(-c3ccc4ncc(N5CC6CCC(C5)O6)nc4n3)ccc2o1 | < 0.1 µM | > 10 µM |  | < 1 µM |  |  | > 10 µM
Cc1ncccc1-c1cnc2ccc(-c3ccc4oc(N)nc4c3)cc2n1 | < 1 µM | > 10 µM |  | > 10 µM |  |  | > 10 µM
Cn1c(N2CCOCC2)nc2cc(-c3ccc4oc(N)nc4c3)ccc2c1=O | < 1 µM | > 10 µM |  | > 10 µM |  |  | > 10 µM
Nc1nc2cc(-c3ccc4ncc(N5CC(N6C7CCC6COC7)C5)nc4n3)ccc2o1 | < 10 µM | > 10 µM |  | > 10 µM |  |  | > 10 µM
CS(=O)(=O)CCN1CCC(Nc2cnc3ccc(-c4ccc5oc(N)nc5c4)cc3n2)CC1 | < 0.1 µM | < 10 µM |  | < 0.1 µM |  |  | < 1 µM
Cc1cn(-c2cnc3ccc(-c4ccc5oc(N)nc5c4)cc3n2)cn1 | < 0.1 µM | > 10 µM |  | < 1 µM |  |  | > 10 µM
Nc1nc2cc(-c3ccc4ncc(N5CCC(O)CC5)cc4n3)ccc2o1 | < 0.1 µM | < 10 µM |  | < 1 µM |  |  | < 10 µM
